Data taken from US20060111368A1, “Phosphodiesterase inhibitor” (Kyowa Hakko Kogyo Co., Ltd., priority 2002, published 2006).
Where a name gives a salt, the structure may show the parent alone. Read-outs that look alike come from different tables or passages of the source.

Experiments:
[1] = biological target: T1, PDE10A (Homo sapiens, UniProt Q9Y233); assay: Activity of inhibiting PDE10A activity ([3H]cAMP decomposition inhibiting test); format: biochemical; conditions: for inhibition at 1 µM: read-out: [3H] cAMP decomposition inhibition rate (%); for IC50: read-out: IC50 (concentration at which to inhibit [3H]cAMP decomposition by 50%)
T1 construct: made in house; host or cells: Sf9 insect cells (baculovirus, pVL1393)
Procedure: Activity of Inhibiting PDE10A Activity (^3H]cAMP Decomposition Inhibiting Test)
PCR was performed using DNAs having base sequences described in SEQ ID NO. 1 and SEQ ID NO. 2 as primers and human kidney cDNA as a template to prepare a plasmid containing amplified fragments. The plasmid was cleaved with restriction endonucleases Pst I and Xba I to obtain a Pst I-Xba I fragment of 0.7 kb.
Meanwhile, Est clone (Cosmo Bio, Tokyo) of GenBank, ACCESSION WO 4835 was cleaved with restriction endonucleases Kpn I and Pst I to obtain a Kpn I-Pst I fragment of 1.5 kb.
The resulting Pst I-Xba I fragment of 0.7 kb and Kpn I-Pst I fragment of 1.5 kb were subcloned in a Kpn I-Xba I site of pBluescript II KS(−) (STRATAGENE, La Jolla, Calif., USA),to construct a plasmid having a cDNA fragment completely including a catalyst region of PDE10A. Subsequently, the plasmid was cleaved with restriction endonucleases Kpn I and Not I to obtain a Kpn I-Not I fragment of 2.2 kb.
The resulting Kpn I-Not I fragment of 2.2 kb and a linker having a BamH I-Kpn I cleavage surface prepared by synthetic DNA having base sequences described in SEQ ID NOS. 3 and 4 were subcloned in a BamH I-Not I site of pVL1393 (PharMingen, San Diego, Calif., USA) to obtain a plasmid for preparation of Baculovirus. The plasmid contains a DNA encoding a peptide in which methionine, FLAG tag and a peptide having a 64th to 779th amino acid sequence of PDE10A [GenBank, ACCESSION NP 006652: Gene, vol. 234, p. 109 (1999), J. Biol. Chem., vol. 274, p. 18438 (1999)] are bound in the order.
The above gene recombinational manipulation was performed according to the method described in Molecular Cloning, 2nd edition, Cold Spring Harbor Laboratory Press, New York (1989).
The expression of PDE10A was conducted according to the Baculovirus expression vector system manual (PharMingen) using insect cells. As insect cells, Sf9 cells (Asahi Technoglass, Tokyo) were used. Sf9 cells were infected with a supernatant (co-transfection sup) containing PDE10A expression virus prepared according to the manual, and cultured at 27° C. for 4 days. The cells were recovered, washed with a phosphate-buffered saline (PBS), and then suspended in an extraction solution [20 mmol/L Tris-acetate (pH 7.5), 2 mmol/L MgCl2, 1 mmol/L dithiothreitol, 1 mmol/L ethylenediaminetetraacetic acid (EDTA), 0.25 mol/L sucrose, 250 unit/mL aprotinin, 40 μg/mL phenylmethylsulfonyl fluoride, and 1 μg/mL pepstatin A]. The cells were disrupted in ice with the maximum output under conditions of 5 seconds and five times using an ultrasonic disruption machine (TOMY model UR-200R, TOMY, Tokyo). A soluble fraction was obtained by centrifugation under 10,000 rpm of the fraction at 4° C. for 30 minutes, and the resulting soluble fraction was used for measuring the PDE activity.
The PDE activity was measured according to the method described in Methods Enzymol., vol. 159, p. 457 (1988).
Using [^3H]cAMP as a substrate, an enzyme reaction was conducted in a reaction solution containing 300 μL of 50 mmol/L N,N-bis (2-hydroxyethyl)-2-aminoethanesulfonic acid (pH 7.2), 1 mmol/L MgCl2 and 0.1 mmol/L ethylene glycol-bis (β-aminoethyl ether)-N,N,N′,N′-tetraacetic acid: EGTA). The concentration of the substrate was 0.2 μmol/L. To 95 μL of an enzyme dilute solution were added 5 μL of a test compound (DMSO solution) and 200 μL of a substrate solution. The mixture was incubated at 30° C. for 20 minutes, and then HCl was added to stop the reaction. The reaction product (5′-AMP) was converted to adenosine using 5′-nucleotidase, and separated the unreacted product from the reactant by DEAE-Sephadex A-25 column (Amersham Pharmacia Biotech, Uppsala, Sweden). The elute was moved to scintillation vials, 6 mL of Ultima Gold (Packard Instrument, Meriden, Conn., USA) was added, and the radioactivity was measured for 2 minutes using a liquid scintillation counter (Beckman LS6500, Beckman, Tokyo),. […]

[2] = Test compound concentration 1 μmol/L, substrate [3H]cAMP 0.2 μmol/L

T1 sequence (Q9Y233 340-1055): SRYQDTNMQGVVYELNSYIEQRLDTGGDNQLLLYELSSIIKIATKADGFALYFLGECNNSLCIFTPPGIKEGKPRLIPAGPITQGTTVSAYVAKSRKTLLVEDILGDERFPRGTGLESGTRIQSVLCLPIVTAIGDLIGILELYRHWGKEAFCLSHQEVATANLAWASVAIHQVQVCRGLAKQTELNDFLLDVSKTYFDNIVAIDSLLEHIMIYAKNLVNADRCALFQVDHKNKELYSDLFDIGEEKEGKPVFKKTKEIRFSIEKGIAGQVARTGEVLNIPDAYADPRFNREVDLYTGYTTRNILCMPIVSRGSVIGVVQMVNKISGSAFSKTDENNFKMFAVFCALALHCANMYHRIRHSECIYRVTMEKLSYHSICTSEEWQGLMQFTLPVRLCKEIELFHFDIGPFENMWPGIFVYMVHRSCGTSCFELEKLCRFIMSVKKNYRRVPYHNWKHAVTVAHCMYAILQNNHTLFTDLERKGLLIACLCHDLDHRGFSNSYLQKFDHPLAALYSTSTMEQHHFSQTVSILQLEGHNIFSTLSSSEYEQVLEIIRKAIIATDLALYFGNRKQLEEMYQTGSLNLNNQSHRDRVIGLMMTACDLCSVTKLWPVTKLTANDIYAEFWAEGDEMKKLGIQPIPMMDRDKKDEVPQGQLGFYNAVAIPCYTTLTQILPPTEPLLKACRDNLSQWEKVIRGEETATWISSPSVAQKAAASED

SMILES | melting point | inhibition at 1 µM [1, 2] | IC50 ([1]; substrate [3H]cAMP 0.2 μmol/L) | inhibition at 1 µM [1]
Cc1c(-c2ccc(Br)cc2)nc2ccc(F)cc2c1C(=O)O | > 300 °C |  |  | 
COc1ccc(F)cc1-c1ccc(-c2nc3ccc(F)cc3c(C(=O)O)c2C)cc1 | > 300 °C |  |  | 
COc1ccc(-c2ccc(-c3nc4ccc(F)cc4c(C(=O)O)c3C)cc2)c(OC)c1 | > 300 °C |  |  | 
Cc1c(-c2ccc(-c3ccccc3-c3ccccc3)cc2)nc2ccc(F)cc2c1N | 227 to 229 °C |  |  | 
Cc1c(-c2ccc(-c3ccccc3CNCCO)cc2)nc2ccc(F)cc2c1CO (as salt: hydrochloride) | 203 to 205 °C |  |  | 
Cc1c(-c2ccc(-c3ccccc3CN3CCOCC3)cc2)nc2ccc(F)cc2c1CO (as salt: hydrochloride) [Compound 12, 6-Fluoro-4-hydroxymethyl-3-methyl-2-(2′-morpholinomethylbiphenyl-4-yl)quinoline dihydrochloride] | 190 to 192 °C |  |  | 
Cc1c(-c2ccc(-c3ccccc3-c3ccccc3)cc2)nc2ccc(F)cc2c1CO [Compound 1, 6-Fluoro-4-hydroxymethyl-3-methyl-2-([1,1′:2′,1″-terphenyl]-4-yl)quinoline] | 121 to 123 °C | 99% | 4.2 nM | 
COc1ccccc1-c1ccc(-c2nc3ccc(F)cc3c(CO)c2C)cc1 [Compound 2, 6-Fluoro-4-hydroxymethyl-2-(2′-methoxybiphenyl-4-yl)-3-methylquinoline] | 178 to 179 °C | 97% | 66 nM | 
CCOc1ccccc1-c1ccc(-c2nc3ccc(F)cc3c(CO)c2C)cc1 [Compound 3, 2-(21-Ethoxybiphenyl-4-yl)-6-fluoro-4-hydroxymethyl-3-methylquinoline] | 140 to 143 °C | 97% | 76 nM | 
CCOc1cccc(-c2ccc(-c3nc4ccc(F)cc4c(CO)c3C)cc2)c1 [Compound 4, 2-(31-Ethoxybiphenyl-4-yl)-6-fluoro-4-hydroxymethyl-3-methylquinoline] | 199 to 200 °C | 83% |  | 
CCOc1ccc(-c2ccc(-c3nc4ccc(F)cc4c(CO)c3C)cc2)cc1 [Compound 5, 2-(4′-Ethoxybiphenyl-4-yl)-6-fluoro-4-hydroxymethyl-3-methylquinoline] | 211 to 212 °C |  |  | 
Cc1c(-c2ccc(-c3ccccc3F)cc2)nc2ccc(F)cc2c1CO [Compound 6, 6-Fluoro-2-(2′-fluorobiphenyl-4-yl)-4-hydroxymethyl-3-methylquinoline] |  | 91% | 98 nM | 
COc1ccc(F)cc1-c1ccc(-c2nc3ccc(F)cc3c(CO)c2C)cc1 [Compound 7, 6-Fluoro-2-(5′-fluoro-2′-methoxybiphenyl-4-yl)-4-hydroxymethyl-3-methylquinoline] | 202 to 203 °C | 97% | 34 nM | 
COc1ccc(-c2ccc(-c3nc4ccc(F)cc4c(CO)c3C)cc2)c(OC)c1 [Compound 8, 2-(2′,4′-dimethoxybiphenyl-4-yl)-6-fluoro-4-hydroxym ethyl-3-methylquinoline] | 205 to 207 °C | 68% |  | 
Cc1c(-c2ccc(-c3ccccc3C=O)cc2)nc2ccc(F)cc2c1CO [Compound 9] | 192 to 194 °C |  |  | 
CNCc1ccccc1-c1ccc(-c2nc3ccc(F)cc3c(CO)c2C)cc1 [Compound 10, 6-Fluoro-4-hydroxymethyl-3-methyl-2-[2′-(methylamino)methylbiphenyl-4-yl]quinoline] | 193 to 195 °C |  |  | 
Cc1c(-c2ccc(-c3ccccc3CN3CCN(c4ccccc4)CC3)cc2)nc2ccc(F)cc2c1CO [Compound 11, 6-Fluoro-4-hydroxymethyl-3-methyl-2-[2′-(4-phenylpiperazin-1-yl)methylbiphenyl-4-yl]quinoline] | 154 to 156 °C | 90% | 173 nM | 
Cc1c(-c2ccc(-c3ccccc3CNc3ccccc3)cc2)nc2ccc(F)cc2c1CO [Compound 13, 6-Fluoro-4-hydroxymethyl-3-methyl-2-[2′-(phenylamino)methylbiphenyl-4-yl]quinoline] | 201 to 202 °C | 90% | 103 nM | 
COC(=O)c1c(C)c(-c2ccc(-c3ccccc3-c3ccccc3)cc2)nc2ccc(F)cc12 [Compound 15, Methyl 6-fluoro-3-methyl-2-([1,1′:2′,1″-terphenyl]-4-yl)quinoline-4-carboxylate] | 164 to 165 °C |  |  | 
CC(=O)c1c(C)c(-c2ccc(-c3ccccc3-c3ccccc3)cc2)nc2ccc(F)cc12 [Compound 16, 4-Acetyl-6-fluoro-3-methyl-2-([1,1′:2′,11″-terphenyl]-4-yl)quinoline] |  |  |  | 80%
Cc1c(-c2ccc(-c3ccccc3-c3ccccc3)cc2)nc2ccc(F)cc2c1C#N [Compound 17, 6-Fluoro-3-methyl-2-([1,1′;2′,1″-terphenyl]-4-yl)quinoline-4-carbonitrile] | 153 to 155 °C | 70% | 373 nM | 
Cc1c(-c2ccc(-c3ccccc3-c3ccccc3)cc2)nc2ccc(F)cc2c1C [Compound 18, 3,4-Dimethyl-6-fluoro-2-([1,1′:2′,1″-terphenyl]-4-yl)quinoline] | 194 to 195 °C | 97% | 4.8 nM | 
COC(=O)c1c(C)c(N2CCN(c3ccccc3OC)CC2)nc2ccc(F)cc12 [Compound 19, Methyl 6-Fluoro-2-[4-(2-methoxyphenyl)piperazin-1-yl]-3-methylquinoline-4-carboxylate] | 128 to 129 °C |  |  | 
COc1ccccc1N1CCN(c2nc3ccc(F)cc3c(CO)c2C)CC1 [Compound 20, 6-Fluoro-4-hydroxymethyl-2-[4-(2-methoxyphenyl)piperazin-1-yl]-3-methylquinoline] | 190 to 191 °C |  |  | 
Cc1c(-c2ccc(Br)cc2)nc2ccc(F)cc2c1CO [Compound 21, 2-(4-Bromophenyl)-6-fluoro-4-hydroxymethyl-3-methylquinoline] | 222 to 240 °C |  |  | 
Cc1c(-c2ccc(-c3ccccc3-c3ccccc3)cc2)nc2ccc(F)cc2c1C(=O)O [Compound C, 6-Fluoro-3-methyl-2-([1,1′:2′,1″-terphenyl)-4-yl)quinoline-4-carboxylic acid] | > 300 °C |  | 0.9 nM | 99%
Cc1c(-c2ccc(-c3ccccc3C=O)cc2)nc2ccc(F)cc2c1C(=O)O [Compound J, 6-Fluoro-2-(2′-formylbiphenyl-4-yl)-3-methylquinoline-4-carboxylic acid] | > 300 °C | 99% | 16 nM | 
CCOc1ccccc1-c1ccc(-c2nc3ccc(F)cc3c(C(=O)O)c2C)cc1 [I, 2-(2′-Ethoxybiphenyl-4-yl)-6-fluoro-3-methylquinoline-4-carboxylic acid] |  | 99% | 5.5 nM | 
